Test results: patent US20250090529A1, “USE OF SHP2 INHIBITORS FOR THE TREATMENT OF INSULIN RESISTANCE” (INSERM (INSTITUT NATIONAL DE LA SANTÉ ET DE LA RECHERCHE …, priority 2018, published 2025)

Tests used:
Obese diabetic mice = test: OGTT in obese diabetic mice after chronic SHP2 inhibition; conditions: gavage 50 mg/kg/day
Procedure: Obese diabetic mice were treated by gavage (50 mg/kg/day). After 15 days of treatment an OGTT was performed (FIG. 1).

[1] = system: renal fibrosis induced by carbon tetrachloride; conditions: Kostallari et al., 2018; cited from earlier work
[2] = Garcia Fortanet et al., J Med Chem 2016; cited from earlier work
[3] = after 15 days of treatment, compared to control

body composition (Obese diabetic mice; 15 days of treatment): without any change | weight (Obese diabetic mice; 15 days of treatment): without any change
SMILES: CC1(N)CCN(c2cnc(-c3cccc(Cl)c3Cl)c(N)n2)CC1 [SHP099, 6-(4-amino-4-methylpiperidin-1-yl)-3-(2,3-dichlorophenyl)pyrazin-2-amine]
fasting blood glucose (Obese diabetic mice; [3]): decreased fasting blood glucose | glucose tolerance (OGTT) (Obese diabetic mice; [3]): significant improvement in the glucose tolerance | effectiveness in treatment of renal fibrosis [1]: effectiveness in treatment of renal fibrosis | oral bioavailability [2]: good | tolerance [2]: good tolerance
